Consider seven compounds from PubChem BioAssay (NCI).

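Briefly, cells in 96-well plates were exposed to five compound concentrations for 48 h, and endpoints were estimated by linear interpolation. At the GI50, growth is halved. Definition used: TGI = concentration required for complete inhibition of growth.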

Test systems include CCRF-CEM leukemia; A549 NSCLC; M14 melanoma; OVCAR-4 ovarian; HT29 colon; BT-549 breast; UACC-62 melanoma; SN12C renal; RXF 393 renal; HL-60(TB) leukemia.
Test in all cases: growth of human tumour cells (NCI), 48 h

For the compound `O=C1NC(=NCc2ccccc2Cl)S/C1=C\c1ccc2ncccc2c1`, the GI50 was 11.2 µM in the test with CCRF-CEM leukemia; 8.5 µM in the test with A549 NSCLC; 16.3 µM in the test with M14 melanoma; 14.7 µM in the test with OVCAR-4 ovarian; > 25 µM with HT29 colon; 7.86 µM in the test with BT-549 breast. Also, the GI50 in the test on UACC-62 melanoma was 17.8 µM; with SN12C renal it was 13.1 µM; in the test with RXF 393 renal it was 8.49 µM; in the test on HL-60(TB) leukemia it was 10.1 µM. For the same compound, the TGI with CCRF-CEM leukemia, in the test on A549 NSCLC, in the test on M14 melanoma, in the test on OVCAR-4 ovarian, in the test on HT29 colon and in the test on BT-549 breast was > 25 µM in each case. Also, the TGI in the test on UACC-62 melanoma, in the test on SN12C renal, in the test with RXF 393 renal and with HL-60(TB) leukemia was > 25 µM each time.
With `COc1cc(-c2cc(/C=C/C(=O)c3ccc(F)c(F)c3)[nH]n2)cc(OC)c1OC`, the GI50 in the test with CCRF-CEM leukemia is 3.08 µM; in the test with A549 NSCLC, 2.43 µM; with M14 melanoma, 2.7 µM; with OVCAR-4 ovarian, 2.2 µM; in the test on HT29 colon, 2.62 µM; with BT-549 breast, 4.1 µM. For the same compound, the GI50 was 2.38 µM with UACC-62 melanoma, 3.37 µM in the test with SN12C renal, 2.05 µM in the test with RXF 393 renal and 2.48 µM in the test with HL-60(TB) leukemia. Also, the TGI stood at 47.2 µM in the test on CCRF-CEM leukemia; 9.9 µM in the test with A549 NSCLC; 11.9 µM in the test on M14 melanoma; 71.7 µM with OVCAR-4 ovarian; 6.47 µM in the test on HT29 colon; 19.3 µM in the test on BT-549 breast. Further, the TGI is 7.44 µM in the test with UACC-62 melanoma, 25.5 µM with SN12C renal, 6.34 µM with RXF 393 renal and 6.03 µM in the test with HL-60(TB) leukemia.
As to `CC1CC2C3CCC4=CC(=O)C=CC4(C)C3(F)C(O)CC2(C)C1(O)C(=O)COP(=O)(O)O` (stereo not given), the GI50 is > 500 µM with CCRF-CEM leukemia; > 500 µM in the test with A549 NSCLC; > 500 µM in the test on M14 melanoma; > 500 µM in the test with OVCAR-4 ovarian; > 500 µM with HT29 colon; 160 µM in the test on BT-549 breast. For the same compound, the GI50 with UACC-62 melanoma, in the test on SN12C renal, in the test with RXF 393 renal and in the test with HL-60(TB) leukemia was > 500 µM throughout. In addition, the TGI with CCRF-CEM leukemia, in the test on A549 NSCLC, in the test on M14 melanoma, in the test on OVCAR-4 ovarian, with HT29 colon and with BT-549 breast was > 500 µM throughout. In addition, the TGI in the test with UACC-62 melanoma, in the test on SN12C renal, with RXF 393 renal and in the test with HL-60(TB) leukemia was > 500 µM each time.
On to `CCN1CCN(c2nc(C)cc(N(CCCNc3ccnc4cc(Cl)ccc34)Cc3ccc4c(c3)OCO4)n2)CC1`, for which the GI50 with CCRF-CEM leukemia was 1.81 µM; in the test with A549 NSCLC, 1.97 µM; with M14 melanoma, 1.8 µM; in the test on OVCAR-4 ovarian, 1.75 µM; in the test on HT29 colon, 1.07 µM; in the test on BT-549 breast, 1.78 µM. Moreover, the GI50 with UACC-62 melanoma is 1.81 µM; in the test with SN12C renal, 2.03 µM; in the test with RXF 393 renal, 1.54 µM; with HL-60(TB) leukemia, 2.11 µM. Further, the TGI in the test on CCRF-CEM leukemia came to 7.14 µM; with A549 NSCLC, 7.42 µM; with M14 melanoma it was 3.38 µM; with OVCAR-4 ovarian, 7.12 µM; in the test with HT29 colon, 2.64 µM; with BT-549 breast it was 3.7 µM. The TGI with UACC-62 melanoma was 3.32 µM; with SN12C renal, 5.55 µM; in the test on RXF 393 renal, 3.12 µM; in the test on HL-60(TB) leukemia it was 3.96 µM.
On to `COc1cc(CNCCCCCCN2C(=O)c3cccc4cccc(c34)C2=O)ccc1O`, for which the GI50 in the test on CCRF-CEM leukemia is 3.53 µM; in the test on A549 NSCLC, 5.56 µM; with M14 melanoma it was 1.97 µM; in the test on OVCAR-4 ovarian it was 6.14 µM; in the test on HT29 colon, 2.62 µM; with BT-549 breast it was 14.5 µM. The GI50 was 13.1 µM in the test on UACC-62 melanoma, 10.1 µM in the test on SN12C renal, 2 µM in the test with RXF 393 renal and 3.33 µM with HL-60(TB) leukemia. The TGI with CCRF-CEM leukemia was found to be 29.3 µM; in the test on A549 NSCLC, 19.4 µM; with M14 melanoma, 3.85 µM; in the test on OVCAR-4 ovarian it was 19.2 µM; with HT29 colon, 10.1 µM; with BT-549 breast, 27.9 µM. Besides, the TGI with UACC-62 melanoma stood at 26.2 µM; in the test on SN12C renal, 22 µM; in the test with RXF 393 renal it was 9.19 µM; in the test on HL-60(TB) leukemia it was 24.3 µM.
For `c1cc(N[C@@H]2CCNC2)nc(-c2cnc3ccc(-c4cn[nH]c4)cn23)c1`, the GI50 in the test with CCRF-CEM leukemia is 3.26 µM; in the test with A549 NSCLC, 22.8 µM; in the test on M14 melanoma it was 13.7 µM; with OVCAR-4 ovarian, 2.84 µM; in the test on HT29 colon, 12.1 µM; in the test on BT-549 breast it was 3.06 µM. The GI50 in the test on UACC-62 melanoma was 5.02 µM; with SN12C renal, 0.795 µM; in the test with RXF 393 renal it was 2.56 µM; with HL-60(TB) leukemia it was 22.1 µM. For the same compound, the TGI with CCRF-CEM leukemia is 14.4 µM; with A549 NSCLC, > 100 µM; in the test on M14 melanoma, 44.9 µM; in the test with OVCAR-4 ovarian, 9.92 µM; in the test with HT29 colon, > 96.8 µM; with BT-549 breast it was 8.32 µM. In addition, the TGI with UACC-62 melanoma was 20.3 µM; with SN12C renal, 13.4 µM; with RXF 393 renal it was 11.7 µM; with HL-60(TB) leukemia, 66.6 µM.
As to `COc1cc(/C=C2\C(=O)N(Cc3ccc(Cl)cc3)c3ccccc32)cc(OC)c1OC`, the GI50 with CCRF-CEM leukemia was 1.41 µM; in the test with A549 NSCLC, 4.27 µM; in the test on M14 melanoma, 2.45 µM; in the test on OVCAR-4 ovarian it was 4.35 µM; in the test with HT29 colon it was 3.27 µM; with BT-549 breast it was 2.51 µM. Moreover, the GI50 was 2.21 µM with UACC-62 melanoma, 2.59 µM with SN12C renal, 2.35 µM in the test with RXF 393 renal and 1.94 µM with HL-60(TB) leukemia. Besides, the TGI was 4.82 µM with CCRF-CEM leukemia; 19.2 µM in the test with A549 NSCLC; 7.01 µM in the test with M14 melanoma; > 49.6 µM in the test on OVCAR-4 ovarian; > 30.5 µM with HT29 colon; 11.6 µM in the test with BT-549 breast. Also, the TGI in the test with UACC-62 melanoma came out at 10 µM; in the test on SN12C renal, 8.99 µM; in the test with RXF 393 renal, 4.95 µM; in the test with HL-60(TB) leukemia, 5.44 µM.
